Results published in the RepoRT retention time repository.

Assay: HILIC, Waters ACQUITY UPLC BEH Amide, 100 × 2.1 mm, 1.7 µm; A: water + 0.125% formic acid + 10 mM ammonium formate; B: 5% water + 95% acetonitrile + 0.125% formic acid + 10 mM ammonium formate; gradient (min/%B) 0/100 2/100 7.7/70 9.5/40 10.25/30 12.75/100 17/100
Conditions: stereoisomer not certain

| LC retention time [min] | Compound |
| --- | --- |
| 5.11 | Nc1ncnc2c1[nH]c(=O)n2C1CC(O)C(CO)O1 (stereo not given) [8-Oxo-2-deoxyadenosine] |
| 2.05 | CCCCN1CCCC1CNC(=O)c1cc(C#N)c2ccccc2c1OC (stereo not given) [Nafadotride] |
| 2.25 | O=C(O)C(O)Cc1c[nH]c2ccccc12 (stereo not given) [Indolelactic acid] |
| 4.06 | COC1C(O)C(CO)OC1n1cnc2c(=O)[nH]cnc21 (stereo not given) [2'-O-Methylinosine] |
| 1 | CC#CC1(O)CCC2C3CCC4=CC(=O)CCC4=C3C(c3ccc(N(C)C)cc3)CC21C (stereo not given) [Mifepristone] |
| 0.99 | CCC(C)C(=O)OC1CCC=C2C=CC(C)C(CCC3CC(O)CC(=O)O3)C21 (stereo not given) [Mevastatin] |
| 1.73 | CC(=O)N1CCN(c2ccc(OCC3COC(Cn4ccnc4)(c4ccc(Cl)cc4Cl)O3)cc2)CC1 (stereo not given) [Ketoconazole] |
| 1.58 | CC(=O)Nc1ccc(CC(=O)O)cc1 [Actrarit] |
| 4.05 | O=C1c2cccc3c2C(CCC3)CN1C1CN2CCC1CC2 (stereo not given) [Palonosetron] |
| 8.05 | OCC1OC(OC2(CO)OC(CO)C(O)C2O)C(O)C(O)C1O (stereo not given) [Sucrose] |
| 4.58 | O=C(O)c1ccnc2ccccc12 [4-Quinolinecarboxylic acid] |
| 8.17 | O=C(O)C1NCCC1O (stereo not given) [3-Hydroxyproline] |
| 1.7 | CCCc1nc(C)c2c(=O)[nH]c(-c3cc(S(=O)(=O)N4CCN(CC)CC4)ccc3OCC)nn12 [Vardenafil] |
| 7.46 | Cn1cnc2c(ncn2C2OC(CO)C(O)C2O)c1=N (stereo not given) [1-Methyladenosine] |
| 2.6 | Cc1cn(C2OC(CO)CC2O)c(=O)[nH]c1=O (stereo not given) [5-Methyl-3-deoxyuridine] |
| 4.66 | COc1cc2nc(N3CCN(C(=O)C4CCCO4)CC3)nc(N)c2cc1OC (stereo not given) [Terazosin] |
| 4.87 | NC1CCN(c2nc3c(cc2F)c(=O)c(C(=O)O)cn3-c2ccc(F)cc2F)C1 (stereo not given) [Tosufloxacin] |
| 3.48 | OCC1OC(n2cnc3c(NC4CCCC4O)ncnc32)C(O)C1O (stereo not given) [N-2-Hydroxycyclopentyladenosine] |
| 4.69 | COc1c(N2CC3CCCNC3C2)c(F)cc2c(=O)c(C(=O)O)cn(C3CC3)c12 (stereo not given) [Moxifloxacin] |

| LC retention time [min] | Compound |
| --- | --- |
| 2.76 | CCN1CCCC1CNC(=O)c1cc(S(=O)(=O)CC)c(N)cc1OC (stereo not given) [Amisulpride] |
| 1.46 | COCC1OC(n2cc(C)c(=O)[nH]c2=O)CC1O (stereo not given) [5'-O-Methylthymidine] |
| 2.03 | O=C(NCCN1CCOCC1)c1ccc(Cl)cc1 [Moclobemide] |
| 6.39 | Cc1cn(C2OC(CO)C(O)C2O)c(=O)nc1N (stereo not given) [5-Methylcytidine] |
| 9.26 | CC(=O)NC1C(O)CC(O)(C(=O)O)OC1C(O)C(O)CO (stereo not given) [N-Acetylneuraminic acid] |
| 2.6 | COC1C(O)C(CO)OC1n1cnc2c(N)ncnc21 (stereo not given) [2'-O-Methyladenosine] |
| 0.99 | C#CC1(O)CCC2C3CCC4=CC(=O)CCC4C3CCC21CC (stereo not given) [Levonorgestrel] |
| 8.25 | O=c1ccn(C2CC(O)C(COP(=O)(O)O)O2)c(=O)[nH]1 (stereo not given) [Deoxyuridine monophosphate] |
| 4.53 | COC(=O)C1=COC(OC2OC(CO)C(O)C(O)C2O)C2C(CO)=CCC12 (stereo not given) [Geniposide] |
| 2.48 | O=c1ccn(C2OC(CO)C(O)C2O)c(=S)[nH]1 (stereo not given) [2-Thiouridine] |
| 6.01 | CN(CCO)CC(O)Cn1cnc2c1c(=O)n(C)c(=O)n2C (stereo not given) [Xanthinol] |
| 0.97 | CCC(C)n1ncn(-c2ccc(N3CCN(c4ccc(OCC5COC(Cn6cncn6)(c6ccc(Cl)cc6Cl)O5)cc4)CC3)cc2)c1=O (stereo not given) [Itraconzaole] |
| 2.01 | O=C(O)c1cc(N=Nc2ccc(S(=O)(=O)Nc3ccccn3)cc2)ccc1O [Sulfasalazine] |
| 2.24 | COC1C(O)C(CO)OC1n1ccc(=O)[nH]c1=O (stereo not given) [2'-O-Methyluridine] |
| 7.61 | NC(Cc1ccc(O)cc1)C(=O)O (stereo not given) [Tyrosine] |
| 1.16 | Cc1ccnc2c1NC(=O)c1cccnc1N2C1CC1 [Viramune] |
| 3.78 | Cc1ncc(CO)c(CO)c1O [Pyridoxine] |
| 7.79 | C=CC1=C(C(=O)O)N2C(=O)C(NC(=O)C(=NOCC(=O)O)c3csc(N)n3)C2SC1 (stereo not given) [Cefixime] |
| 7.62 | Nc1ncnc2c1ncn2C1OC2COP(=O)(O)OC2C1O (stereo not given) [Adenosine 3',5'-cyclic monophosphate] |

The remaining lines, values behind:

| Compound | LC retention time [min] |
| --- | --- |
| NC(N)=NCCCC(NC(=O)C(N)CCC(=O)O)C(=O)O (stereo not given) [Glu-Arg] | 9.9 |
| CN1CCN(C2=Nc3cc(F)ccc3Cc3ccccc32)CC1 [Fluperlapine] | 2.3 |
| CC(=O)OC1CC(C)(C)C(=C=CC(C)=CC=CC(C)=CC=CC=C(C)C=CC=C(C)C(=O)CC23OC2(C)CC(O)CC3(C)C)C(C)(O)C1 (stereo not given) [Fucoxanthin] | 1.07 |
| O=C(O)CCC(O)C(=O)O (stereo not given) [2-Hydroxyglutaric acid] | 0.91 |
| CNC(=O)Oc1ccc2c(c1)C1(C)CCN(C)C1N2C (stereo not given) [Physostigmine] | 3.17 |
| NCCCC(=O)O [gamma-Aminobutyric Acid] | 7.86 |
| COc1ccc2c(c1)C13CCCCC1C(C2)N(C)CC3 (stereo not given) [Dextromethorphan] | 2.64 |
| CCCC(=O)OCC [Ethylbutanoate] | 4.88 |
| COc1cc(/C=C/C(=O)O)ccc1O [Ferulic acid] | 1.36 |
| CNC(CC(C)C)C(=O)O (stereo not given) [N-Methylleucine] | 6.45 |
| Cc1cccc(C)c1NC(=O)C(C)N (stereo not given) [Tocainide] | 4.97 |
| CC(C)CC(NC(=O)C(C)N)C(=O)O (stereo not given) [Ala-Leu] | 7.6 |
| CNCCc1cnc[nH]1 [N-alpha-methylhistamine] | 7.48 |
| NC(=O)CCC(NC(=O)C(N)CCC(=O)O)C(=O)O (stereo not given) [Glu-Gln] | 9.6 |
| CCOC(=O)C1=C(C)NC(C)=C(C(=O)OCC)C1c1ccccc1C=CC(=O)OC(C)(C)C [Lacidipine] | 0.94 |
| CNC(Cc1cnc[nH]1)C(=O)O (stereo not given) [N-Methylhistidine] | 9.47 |
| CCC(C)C(NC)C(=O)O (stereo not given) [N-Methylisoleucine] | 6.44 |
| C[N+](C)(C)C(Cc1c[nH]c(=S)[nH]1)C(=O)[O-] (stereo not given) [Ergothioneine] | 7.74 |
| O=C(O)Cc1ccccc1Nc1c(Cl)cccc1Cl [Diclofenac] | 1.08 |
| NC(N)=NOCCC(N)C(=O)O (stereo not given) [Canavanine] | 9.42 |
| CC(C)=CCCC(C)=CC(=O)O [Geranic acid] | 1.3 |
| CC(=O)NCCCCNCCCN [N8-Acetylspermidine] | 8.87 |
| NC1CCCCC1 [Cyclohexanamine] | 5.1 |
| c1ccc2c(-c3nccs3)c[nH]c2c1 [Camalexin] | 1.05 |
| CC(=O)Oc1ccc2c(C)cc(=O)oc2c1 [4-Methylumbelliferyl acetate] | 1.06 |
| CN1CCC(=C2c3ccccc3CC(=O)c3sccc32)CC1 [Ketotifen] | 2.71 |

| Compound | LC retention time [min] |
| --- | --- |
| CC(OP(=O)(O)O)C(N)C(=O)O (stereo not given) [o-Phosphothreonine] | 9.74 |
| CC(=O)NC(CCC(=O)O)C(=O)O (stereo not given) [N-Acetylglutamic acid] | 7.67 |
| CCCCCCCC=O [Octanal] | 6.98 |
| CC(C)CC(N(C)C)C1(c2ccc(Cl)cc2)CCC1 (stereo not given) [Sibutramine] | 1.86 |
| NC(CC(=O)O)c1ccc(O)cc1 (stereo not given) [3-Amino-3-(4-hydroxyphenyl)propionic acid] | 7.42 |
| Cc1sc(N)c(C(=O)c2cccc(C(F)(F)F)c2)c1C | 0.94 |
| CS(=O)CCC(N)C(=O)O (stereo not given) [Methioninesulfoxide] | 8.62 |
| COC(=O)C(N)Cc1ccc(O)cc1 (stereo not given) [Methyltyrosinate] | 4.23 |
| CC1(C)OC2COC3(COS(N)(=O)=O)OC(C)(C)OC3C2O1 (stereo not given) [Topiramate] | 1.1 |
| CCCCCCCCCCCCCC(=O)OC(CO)CO [2-Myristoylglycerol] | 1.01 |
| CC(C)C12OC1C1OC13C1(C)CCC4=C(COC4=O)C1CC1OC13C2O (stereo not given) [Triptolide] | 1.02 |
| CNC1CC(c2ccc(Cl)c(Cl)c2)c2ccccc21 (stereo not given) [Indatraline] | 2.88 |
| CCCCCCCCCC=O [Decanal] | 2.17 |
| COc1ccc(CC(C)NCC(O)c2ccc(O)c(NC=O)c2)cc1 (stereo not given) [Formoterol] | 5.18 |
| O=C1CCCC(=O)C1 [1,3 Cyclohexanedione] | 1.47 |
| CC(N)C(=O)O (stereo not given) [Alanine] | 8.05 |
| NC(CCOC(=O)CCC(=O)O)C(=O)O (stereo not given) [O-Succinylhomoserine] | 8.06 |
| CCC1=CC2CN(C1)Cc1c([nH]c3ccccc13)C(C(=O)OC)(c1cc3c(cc1OC)N(C)C1C(O)(C(=O)OC)C(OC(C)=O)C4(CC)C=CCN5CCC31C54)C2 (stereo not given) [Vinorelbine] | 4.76 |
| CC(C)CC(O)C(=O)O (stereo not given) [2-Hydroxy-4-methylpentanoic acid] | 1.57 |
| Cn1c(=O)c2c([nH]c(=O)n2C)n(C)c1=O [1,3,7-Trimethyluric acid] | 1.83 |
| c1ccc(Cn2ccnc2)cc1 [1-Benzylimidazole] | 1.63 |
| COCCOC(=O)C1=C(C)NC(C)=C(C(=O)OC(C)C)C1c1cccc([N+](=O)[O-])c1 (stereo not given) [Nimodipine] | 0.94 |
| CC(C=CC1(O)C(C)=CC(=O)CC1(C)C)=CC(=O)O (stereo not given) [Abscisic acid] | 1.33 |
| CCC(C)C(N)C(=O)O (stereo not given) [Isoleucine] | 7.18 |
| COc1cc(C)c(Cc2cnc(N)nc2N)cc1OC [Ormetroprim] | 4.19 |
| CC(N)C(=O)NC(C(=O)O)C(C)C (stereo not given) [Ala-Val] | 7.66 |
